molecular target: human PAD4 (hPAD4) (Homo sapiens (Human), UniProt Q9UM07); experiment: RFMS Human PAD4 Functional Assay 1; type: biochemical; conditions: RFMS assay 1; 5 nM hPAD4, 250 μM BAEE substrate, 50 μM calcium, 37° C.
In short: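 Recombinant hPAD4 (5 nM) was preincubated with compound (top 50 μM, 0.5% DMSO) for 30 min at 37 °C, then reacted with 250 μM BAEE for 90 min at 37 °C in pH 7.5 HEPES buffer with 50 μM calcium and 5 μM TPEN. Product was derivatized with phenyl glyoxal and quantified by RapidFire MS.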

human PAD4 (hPAD4), sequence (Q9UM07 whole entry): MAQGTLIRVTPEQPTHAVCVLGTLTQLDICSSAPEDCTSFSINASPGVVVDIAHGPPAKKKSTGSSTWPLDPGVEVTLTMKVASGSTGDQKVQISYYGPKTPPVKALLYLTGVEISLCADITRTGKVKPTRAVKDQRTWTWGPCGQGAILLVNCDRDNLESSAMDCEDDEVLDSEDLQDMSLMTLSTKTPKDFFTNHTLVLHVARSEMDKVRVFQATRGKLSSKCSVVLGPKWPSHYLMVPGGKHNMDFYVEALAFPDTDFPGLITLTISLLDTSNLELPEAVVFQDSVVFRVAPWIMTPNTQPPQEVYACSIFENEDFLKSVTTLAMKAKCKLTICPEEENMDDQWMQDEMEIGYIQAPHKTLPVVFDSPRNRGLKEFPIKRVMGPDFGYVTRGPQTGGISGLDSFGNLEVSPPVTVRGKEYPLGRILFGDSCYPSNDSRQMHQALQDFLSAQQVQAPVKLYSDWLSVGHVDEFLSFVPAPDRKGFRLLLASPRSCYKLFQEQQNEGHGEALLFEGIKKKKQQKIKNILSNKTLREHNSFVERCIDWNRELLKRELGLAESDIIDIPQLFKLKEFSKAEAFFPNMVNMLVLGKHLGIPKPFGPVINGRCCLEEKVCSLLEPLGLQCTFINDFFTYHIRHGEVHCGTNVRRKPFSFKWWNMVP

Compound	IC50
Cc1c(-c2cc3cc(F)cc(C4CCN(C(=O)CC(C)C)CC4)c3n2CC2CC2)nn2cc(C(=O)N3C[C@H](N)C[C@@H](F)C3)ccc12 [Example 495, 1-(4-(2-(6-((3R,5R)-3-Amino-5-fluoropiperidine-1-carbonyl)-3-methylpyrazolo[1,5-a]pyridin-2-yl)-1-(cyclopropylmethyl)-5-fluoro-1H-indol-7-yl)piperidin-1-yl)-3-methylbutan-1-one]	330 nM
CO[C@H](C)C(=O)N1CCC(c2cc(F)cc3cc(-c4nn5cc(C(=O)N6CCC[C@@H](N)C6)ccc5c4C)n(CC4CC4)c23)CC1 [Example 497, (R)-1-(4-(2-(6-((R)-3-Aminopiperidine-1-carbonyl)-3-methylpyrazolo[1,5-a]pyridin-2-yl)-1-(cyclopropylmethyl)-5-fluoro-1H-indol-7-yl)piperidin-1-yl)-2-methoxypropan-1-one]	40 nM
CO[C@H](C)C(=O)N1CCC(c2cc(F)cc3cc(-c4nn5cc(C(=O)N6C[C@H](N)C[C@@H](F)C6)ccc5c4C)n(CC4CC4)c23)CC1 [Example 498, (R)-1-(4-(2-(6-((3R,5R)-3-Amino-5-fluoropiperidine-1-carbonyl)-3-methylpyrazolo[1,5-a]pyridin-2-yl)-1-(cyclopropylmethyl)-5-fluoro-1H-indol-7-yl)piperidin-1-yl)-2-methoxypropan-1-one]	70 nM
CO[C@@H](C)C(=O)N1CCC(c2cc(F)cc3cc(-c4nn5cc(C(=O)N6CCC[C@@H](N)C6)ccc5c4C)n(CC4CC4)c23)CC1 [Example 499, (S)-1-(4-(2-(6-((R)-3-Aminopiperidine-1-carbonyl)-3-methylpyrazolo[1,5-a]pyridin-2-yl)-1-(cyclopropylmethyl)-5-fluoro-1H-indol-7-yl)piperidin-1-yl)-2-methoxypropan-1-one]	150 nM
CO[C@@H](C)C(=O)N1CCC(c2cc(F)cc3cc(-c4nn5cc(C(=O)N6C[C@H](N)C[C@@H](F)C6)ccc5c4C)n(CC4CC4)c23)CC1 [Example 500, (S)-1-(4-(2-(6-((3R,5R)-3-Amino-5-fluoropiperidine-1-carbonyl)-3-methylpyrazolo[1,5-a]pyridin-2-yl)-1-(cyclopropylmethyl)-5-fluoro-1H-indol-7-yl)piperidin-1-yl)-2-methoxypropan-1-one]	240 nM
COC(C)(C)C(=O)N1CCC(c2cc(F)cc3cc(-c4nn5cc(C(=O)N6C[C@H](N)C[C@@H](F)C6)ccc5c4C)n(CC4CC4)c23)CC1 [Example 501, 1-(4-(2-(6-((3R,5R)-3-Amino-5-fluoropiperidine-1-carbonyl)-3-methylpyrazolo[1,5-a]pyridin-2-yl)-1-(cyclopropylmethyl)-5-fluoro-1H-indol-7-yl)piperidin-1-yl)-2-methoxy-2-methylpropan-1-one]	130 nM
COCC(=O)N1CCC(c2cc(F)cc3cc(-c4nn5cc(C(=O)N6CCC[C@@H](N)C6)ccc5c4C)n(CC4CC4)c23)CC1 [Example 502, (R)-1-(4-(2-(6-(3-Aminopiperidine-1-carbonyl)-3-methylpyrazolo[1,5-a]pyridin-2-yl)-1-(cyclopropylmethyl)-5-fluoro-1H-indol-7-yl)piperidin-1-yl)-2-methoxyethan-1-one]	70 nM
COCC(=O)N1CCC(c2cc(F)cc3cc(-c4nn5cc(C(=O)N6C[C@H](N)C[C@@H](F)C6)ccc5c4C)n(CC4CC4)c23)CC1 [Example 503, 1-(4-(2-(6-((3R,5R)-3-Amino-5-fluoropiperidine-1-carbonyl)-3-methylpyrazolo[1,5-a]pyridin-2-yl)-1-(cyclopropylmethyl)-5-fluoro-1H-indol-7-yl)piperidin-1-yl)-2-methoxyethan-1-one]	60 nM
Cc1c(-c2cc3cc(F)cc(C4CCN(C(=O)C5CC(O)(C(F)(F)F)C5)CC4)c3n2CC2CC2)nn2cc(C(=O)N3CCC[C@@H](N)C3)ccc12 (stereo partly drawn) [Example 504, (R)-(3-Aminopiperidin-1-yl)(2-(1-(cyclopropylmethyl)-5-fluoro-7-(1-(3-hydroxy-3-(trifluoromethyl)cyclobutane-1-carbonyl)piperidin-4-yl)-1H-indol-2-yl)-3-methylpyrazolo[1,5-a]pyridin-6-yl)methanone]	110 nM
CC(=O)N1CCC(c2cc(F)cc3cc(-c4nn5cc(C(=O)N6CCC[C@@H](N)C6)ccc5c4C)n(CC4CC4)c23)CC1 [Example 506, (R)-1-(4-(2-(6-(3-Aminopiperidine-1-carbonyl)-3-methylpyrazolo[1,5-a]pyridin-2-yl)-1-(cylcopropylmethyl)-5-fluoro-1H-indol-7-yl)piperidin-1-yl)ethan-1-one]	70 nM
CC(=O)N1CCC(c2cc(F)cc3cc(-c4nn5cc(C(=O)N6C[C@H](N)C[C@@H](F)C6)ccc5c4C)n(CC4CC4)c23)CC1 [Example 507, 1-(4-(2-(6-((3R,5R)-3-Amino-5-fluoropiperidine-1-carbonyl)-3-methylpyrazolo[1,5-a]pyridin-2-yl)-1-(cyclopropylmethyl)-5-fluoro-1H-indol-7-yl)piperidin-1-yl)ethan-1-one]	170 nM
COCC(=O)N1CCC(c2nccc3cc(-c4nn5cc(C(=O)N6C[C@H](N)C[C@@H](F)C6)cc(OC)c5c4C)n(CC4CC4)c23)CC1 [Example 511, 1-(4-(2-(6-((3R,5R)-3-Amino-5-fluoropiperidine-1-carbonyl)-4-methoxy-3-methylpyrazolo[1,5-a]pyridin-2-yl)-1-(cyclopropylmethyl)-1H-pyrrolo[2,3-c]pyridin-7-yl)piperidin-1-yl)-2-methoxyethan-1-one]	10 nM
COc1cc(C(=O)N2C[C@H](N)C[C@@H](F)C2)cn2nc(-c3cc4cccc(C5CN(C(=O)[C@H]6CC[C@H](O)CC6)C5)c4n3CC3CC3)c(C)c12 [Example 514, ((3R,5R)-3-Amino-5-fluoropiperidin-1-yl)(2-(1-(cyclopropylmethyl)-7-(1-((1R,4R)-4-hydroxycyclohexane-1-carbonyl)azetidin-3-yl)-1H-indol-2-yl)-4-methoxy-3-methylpyrazolo[1,5-a]pyridin-6-yl)methanone]	60 nM
COc1cc(C(=O)N2CCC[C@@H](N)C2)cn2nc(-c3cc4cccc(C5CN(C(=O)C(C)(C)OC)C5)c4n3CC3CC3)c(C)c12 [Example 516, (R)-1-(3-(2-(6-(3-Aminopiperidine-1-carbonyl)-4-methoxy-3-methylpyrazolo[1,5-a]pyridin-2-yl)-1-(cyclopropylmethyl)-1H-indol-7-yl)azetidin-1-yl)-2-methoxy-2-methylpropan-1-one]	1040 nM
COc1cc(C(=O)N2CCC[C@@H](N)C2)cn2nc(-c3cc4cccc(C5CN(C(=O)[C@H]6CC[C@H](O)CC6)C5)c4n3CC3CC3)c(C)c12 [Example 517, ((R)-3-Aminopiperidin-1-yl)(2-(1-(cyclopropylmethyl)-7-(1-((1r,4r)-4-hydroxycyclohexane-1-carbonyl)azetidin-3-yl)-1H-indol-2-yl)-4-methoxy-3-methylpyrazolo[1,5-a]pyridin-6-yl)methanone]	60 nM
COc1cc(C(=O)N2C[C@H](N)C[C@@H](F)C2)cn2nc(-c3cc4cccc(C5CN(C(=O)C(C)(C)OC)C5)c4n3CC3CC3)c(C)c12 [Example 518, 1-(3-(2-(6-((3R,5R)-3-Amino-5-fluoropiperidine-1-carbonyl)-4-methoxy-3-methylpyrazolo[1,5-a]pyridin-2-yl)-1-(cyclopropylmethyl)-1H-indol-7-yl)azetidin-1-yl)-2-methoxy-2-methylpropan-1-one]	260 nM
COc1cc(C(=O)N2C[C@H](N)C[C@@H](F)C2)cn2nc(-c3cc4cccc(C5CN(C(=O)[C@H]6CC[C@@H](O)CC6)C5)c4n3CC3CC3)c(C)c12 [Example 519, ((3R,5R)-3-Amino-5-fluoropiperidin-1-yl)(2-(1-(cyclopropylmethyl)-7-(1-((1s,4s)-4-hydroxycyclohexane-1-carbonyl)azetidin-3-yl)-1H-indol-2-yl)-4-methoxy-3-methylpyrazolo[1,5-a]pyridin-6-yl)methanone]	40 nM
COc1cc(C(=O)N2CCC[C@@H](N)C2)cn2nc(-c3cc4cccc(C5CN(C(=O)[C@H]6CC[C@@H](O)CC6)C5)c4n3CC3CC3)c(C)c12 [Example 520, ((R)-3-Aminopiperidin-1-yl)(2-(1-(cyclopropylmethyl)-7-(1-((1s,4s)-4-hydroxycyclohexane-1-carbonyl)azetidin-3-yl)-1H-indol-2-yl)-4-methoxy-3-methylpyrazolo[1,5-a]pyridin-6-yl)methanone]	220 nM
COc1cc(C(=O)N2CCC[C@@H](N)C2)cn2nc(-c3cc4cccc(C5CN(C(=O)[C@H](C)OC)C5)c4n3CC3CC3)c(C)c12 [Example 523, (S)-1-(3-(2-(6-((R)-3-Aminopiperidine-1-carbonyl)-4-methoxy-3-methylpyrazolo[1,5-a]pyridin-2-yl)-1-(cyclopropylmethyl)-1H-indol-7-yl)azetidin-1-yl)-2-methoxypropan-1-one]	400 nM
COc1cc(C(=O)N2C[C@H](N)C[C@@H](F)C2)cn2nc(-c3cc4cccc(C5CN(C(=O)[C@H](C)OC)C5)c4n3CC3CC3)c(C)c12 [Example 524, (S)-1-(3-(2-(6-((3R,5R)-3-Amino-5-fluoropiperidine-1-carbonyl)-4-methoxy-3-methylpyrazolo[1,5-a]pyridin-2-yl)-1-(cyclopropylmethyl)-1H-indol-7-yl)azetidin-1-yl)-2-methoxypropan-1-one]	280 nM
COc1cc(C(=O)N2CCC[C@@H](N)C2)cn2nc(-c3cc4cccc(C5CN(C(=O)[C@@H](C)OC)C5)c4n3CC3CC3)c(C)c12 [Example 525, (R)-1-(3-(2-(6-((R)-3-Aminopiperidine-1-carbonyl)-4-methoxy-3-methylpyrazolo[1,5-a]pyridin-2-yl)-1-(cyclopropylmethyl)-1H-indol-7-yl)azetidin-1-yl)-2-methoxypropan-1-one]	90 nM
